Laboratory results reported in US20260109693A1, “BUTENOLIDE COMPOUNDS CONTAINING THIAZOLIDINONE STRUCTURE AS WELL AS PREPARATION METHOD THEREFOR AND USE THEREOF” (priority 2023, published 2026).

Test system: Fusarium graminearum strains resistant to phenamacril
Format: cell-based

5-(4-methyl-2-oxo-1-oxaspiro[4,5]-dec-3-en-3-ethylidene)-2-thio-4-thiazolidinone [Compound 3-1]
inhibition rate on resistant strains compared with standard strain (1 mg/L and 0.5 mg/L, resistant strains T10, T2-5, T32, T13, T12 vs standard strain 2021): the same as that of the standard wild-type Fusarium graminearum strain
growth inhibition of all resistant strains (50 mg/L, resistant strains T2-5, T10, T32, T18, T48, T79): completely inhibit the growth of all resistant strains
